Some results are limits rather than exact numbers.

One test deals with T1, recombinant human NaV1.8 stably transfected HEK cells (Homo sapiens, UniProt Q9Y5Y9).
T1 construct: expressed in transfected cells; host or cells: HEK cells, stably transfected
T1 sequence (Q9Y5Y9 whole entry): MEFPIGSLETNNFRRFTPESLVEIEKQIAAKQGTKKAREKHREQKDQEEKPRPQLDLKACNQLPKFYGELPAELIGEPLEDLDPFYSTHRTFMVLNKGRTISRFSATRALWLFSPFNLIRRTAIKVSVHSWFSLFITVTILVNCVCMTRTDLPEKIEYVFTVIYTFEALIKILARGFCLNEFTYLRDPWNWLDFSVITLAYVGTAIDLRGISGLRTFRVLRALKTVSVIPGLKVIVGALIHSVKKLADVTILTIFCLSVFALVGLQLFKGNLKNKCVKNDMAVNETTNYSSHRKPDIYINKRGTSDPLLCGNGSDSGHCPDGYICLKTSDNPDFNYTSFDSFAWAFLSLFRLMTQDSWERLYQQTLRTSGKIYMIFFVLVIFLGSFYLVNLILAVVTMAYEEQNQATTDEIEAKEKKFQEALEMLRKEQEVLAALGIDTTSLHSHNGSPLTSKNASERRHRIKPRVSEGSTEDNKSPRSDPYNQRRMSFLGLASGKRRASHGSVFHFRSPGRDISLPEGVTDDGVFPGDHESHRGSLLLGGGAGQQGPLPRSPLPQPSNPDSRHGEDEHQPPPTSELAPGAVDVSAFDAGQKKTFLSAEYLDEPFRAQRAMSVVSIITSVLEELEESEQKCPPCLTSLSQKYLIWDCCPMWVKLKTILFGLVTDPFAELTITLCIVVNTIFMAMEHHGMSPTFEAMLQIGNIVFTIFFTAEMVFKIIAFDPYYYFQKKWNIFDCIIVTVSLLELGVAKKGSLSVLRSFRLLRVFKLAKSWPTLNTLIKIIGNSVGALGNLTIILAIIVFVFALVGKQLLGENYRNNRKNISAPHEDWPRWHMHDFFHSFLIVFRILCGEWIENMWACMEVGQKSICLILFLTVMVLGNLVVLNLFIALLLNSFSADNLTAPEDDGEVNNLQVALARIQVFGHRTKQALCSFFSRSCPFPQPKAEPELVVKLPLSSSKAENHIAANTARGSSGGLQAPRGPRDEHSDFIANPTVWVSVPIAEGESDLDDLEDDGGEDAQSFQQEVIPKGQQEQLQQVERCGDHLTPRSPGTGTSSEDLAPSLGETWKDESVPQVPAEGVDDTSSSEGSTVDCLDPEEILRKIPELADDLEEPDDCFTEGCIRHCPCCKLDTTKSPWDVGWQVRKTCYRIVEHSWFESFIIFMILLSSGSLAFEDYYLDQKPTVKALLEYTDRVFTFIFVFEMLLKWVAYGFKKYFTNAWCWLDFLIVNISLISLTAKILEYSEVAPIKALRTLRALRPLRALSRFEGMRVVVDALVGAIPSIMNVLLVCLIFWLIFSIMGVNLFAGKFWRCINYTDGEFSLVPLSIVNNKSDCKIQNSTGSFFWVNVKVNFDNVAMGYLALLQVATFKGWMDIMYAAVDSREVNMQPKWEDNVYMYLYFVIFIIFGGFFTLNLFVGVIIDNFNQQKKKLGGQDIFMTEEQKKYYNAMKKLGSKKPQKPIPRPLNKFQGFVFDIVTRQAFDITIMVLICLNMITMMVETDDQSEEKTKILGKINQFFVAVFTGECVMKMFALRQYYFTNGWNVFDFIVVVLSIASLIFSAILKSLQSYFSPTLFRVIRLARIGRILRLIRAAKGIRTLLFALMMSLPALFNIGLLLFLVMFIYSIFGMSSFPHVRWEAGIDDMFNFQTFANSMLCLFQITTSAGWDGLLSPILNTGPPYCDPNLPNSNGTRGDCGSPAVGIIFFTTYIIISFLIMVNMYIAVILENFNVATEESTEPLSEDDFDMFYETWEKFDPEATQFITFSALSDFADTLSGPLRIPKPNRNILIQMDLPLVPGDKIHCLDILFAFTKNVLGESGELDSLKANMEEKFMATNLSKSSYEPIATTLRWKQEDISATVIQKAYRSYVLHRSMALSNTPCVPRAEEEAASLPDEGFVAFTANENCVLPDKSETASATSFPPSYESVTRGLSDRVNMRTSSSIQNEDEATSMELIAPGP
The experiment in a line: Compound profiling on NaV1.8, human NaV1.8 cell line, SyncroPatch384PE automated patch clamp assay (Example 115, third set of compounds, Table 27). The format is cell-based. To be noted: inactivated state block (P2 measurement), human NaV1.8 HEK cells, Table 27 (third set of compounds), read-out: P2 IC50. In outline:
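HEK cells, cultured at 30 °C the day before, recorded by automated whole-cell patch clamp (CsF intracellular, 140 mM Na+ external), holding −120 mV. 10-point curves at 10–0.0002 µM (or 1–0.00002 µM), 5 min exposure; IC50 for resting (P1) and inactivated-state block (P2, after 10 s at −40 mV), normalized to 150 µM tetracaine and 0.1% DMSO.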
(In general: In patch-clamp work, channel activity is measured electrically.)
By IC50 is commonly meant the midpoint of a concentration-inhibition curve. As for `COc1cc(F)ccc1Oc1nnc(C(F)(F)F)cc1C(=O)N[C@H]1CCCN(S(C)(=O)=O)C1` [Compound 7, (S)-3-(4-Fluoro-2-methoxyphenoxy)-N-(1-(methylsulfonyl)piperidin-3-yl)-6-(trifluoromethyl)pyridazine-4-carboxamide], the IC50 was in the range of 501 to 1000 nM.

The test is the same for the next values; noted with them: resting state block (P1 measurement), human NaV1.8 HEK cells, Table 27 (third set of compounds), read-out: P1 IC50.
As for `COc1cc(F)ccc1Oc1nnc(C(F)(F)F)cc1C(=O)N[C@H]1CCCN(S(C)(=O)=O)C1` [Compound 7, (S)-3-(4-Fluoro-2-methoxyphenoxy)-N-(1-(methylsulfonyl)piperidin-3-yl)-6-(trifluoromethyl)pyridazine-4-carboxamide], the IC50 is 1000 to 5000 nM.

For another test, the target named is T2, human NaV1.8 (Homo sapiens, UniProt Q9Y5Y9). The experiment in a line: Human NaV1.8 cell line SyncroPatch384PE automated patch clamp assay. It counts as cell-based. Also noted: expressed in transfected cells; host or cells: HEK cells, stably transfected. To be noted: resting state block (P1 measurement), recombinant human NaV1.8 cells. As for the experimental part: Compound Profiling on NaV1.8—Human NaV1.8 Cell Line—SyncroPatch384PE Assay
T2 sequence (Q9Y5Y9 whole entry): as above
Compounds were tested on recombinant human NaV1.8 stably transfected HELK cells using the SyncroPatch384PE system, an automated patch clamp device. Cells were cultured at 37° C./5% CO2 in DMEM medium supplemented with GlutaMAX I, NEAA 1%, FBS 10% and seeded in T175 flasks. Cells were cultured at 30° C. one day prior to recording sodium currents. On the day of the recordings, cells were detached with 0.05% Trypsin-EDTA, resuspended in serum free DMEM medium and placed into the SyncroPatch384PE 6° C. pre-cooled cell hotel and shaken at 200 rpm. Intracellular solution (IC) contained, in mM: 10, CsCl; 110, CsF; 20, EGTA; 10, HEPES. Extracellular solution (EC) contained, in mM: 140, NaCl; 4, KCl; 5, Glucose; 10, HEPES; 2, CaCl2; 1, MgCl2. Washing solution contained, in mM: 40, NMDG; 100, NaCl; 4, KCl; 10, Glucose; 10, HEPES; 5, CaCl2; 1, MgCl2.
Compounds were tested in quadruplicates in 0.1% DMSO and 0.030% Pluronic Acid. Compounds were diluted 1:3.33 in EC solution to create a 10-point concentration response curve, spanning a final concentration range from 10-0.0002 μM in the assay plate. Compounds with low nM potency were retested using a lower concentration range (1-0.00002 μM). Each plate contained tetracaine and another tool compound as positive controls. Up to 7 compounds were tested on one plate. 150 μM tetracaine and 0.1% DMSO were used as high and low controls, respectively.
Whole cell patch clamp recordings were conducted according to Nanion's standard procedure for SyncroPatch384PE®. Cells were held at a holding potential of −120 mV. A depolarization step to 10 mV for 30 ms was applied (P1 measurement), followed by a hyperpolarization step to −100 mV for 100 ms. An inactivation step at −40 mV for 10 sec was applied before stepping to −100 mV for 20 ms, followed by a step to 10 mV for 30 ms (P2 measurement) and then back to −100 mV for 30 ms. Sweep interval was 15 sec with a sampling rate of 10 kHz. Following establishment of the whole-cell configuration in EC, two washing steps with reference buffer were performed to stabilize the baseline. Compounds were then applied by the SynchroPatch into each well and the current was recorded for five minutes in EC, followed by application of tetracaine to achieve full block at the end of the experiment. The potency of the compounds was assessed on two read-outs, resting state block (P1 measurement) or inactivated state block (P2 measurement) to obtain IC50 values. Values were normalized to high (tetracaine) and low (DMSO) controls.
With `COc1cc(F)ccc1Oc1nnc(C(F)(F)F)cc1C(=O)N[C@H]1CCCN(C(=O)OC(C)(C)C)C1` [Compound 5, tert-Butyl (S)-3-(3-(4-fluoro-2-methoxyphenoxy)-6-(trifluoromethyl)pyridazine-4-carboxamido)piperidine-1-carboxylate], the IC50 is greater than 5 µM.

As to `CC(=O)N1CCC[C@@H](NC(=O)c2cc(C(F)(F)F)nnc2Oc2ccc(F)cc2C)C1` [Compound 4], the half-maximal inhibitory concentration (IC50) is greater than 5 µM.

In the case of `COc1cc(F)ccc1Oc1nnc(C(F)(F)F)cc1C(=O)NC1CCCNC1=O` (stereo not shown) [Compound 9], the 50% inhibitory concentration (IC50) was greater than 5 µM.

In the case of `COc1cc(F)ccc1Oc1nnc(C(F)(F)F)cc1C(=O)N[C@H]1CCCN(S(C)(=O)=O)C1` [Compound 7, (S)-3-(4-Fluoro-2-methoxyphenoxy)-N-(1-(methylsulfonyl)piperidin-3-yl)-6-(trifluoromethyl)pyridazine-4-carboxamide], the IC50 is greater than 5 µM.

Take `Cc1cc(F)ccc1Oc1nnc(C(F)(F)F)cc1C(=O)NC1CCC(=O)NC1` (stereo not shown) [Compound 11]: the IC50 is greater than 5 µM.

With `COc1cc(F)ccc1Oc1nnc(C(F)(F)F)cc1C(=O)NC1CCC(=O)NC1` (stereo not shown) [Compound 12], the half-inhibitory concentration (IC50) was greater than 5 µM.

On to `COc1cc(F)ccc1Oc1nnc(C(F)(F)F)cc1C(=O)N[C@H]1CCCNC1` [Compound 6, (S)-3-(4-Fluoro-2-methoxyphenoxy)-N-(piperidin-3-yl)-6-(trifluoromethyl)pyridazine-4-carboxamide], for which the IC50 was greater than 5 µM.

Regarding `Cc1cc(F)ccc1Oc1nnc(C(F)(F)F)cc1C(=O)NC1CCCNC1=O` (stereo not shown) [Compound 10], the concentration for half-maximal inhibition (IC50) is greater than 5 µM.

Another test addresses T2, human NaV1.8. The experiment in a line: Activity of representative NaV1.8 inhibitors, determined using one or more of the methods of Example 122 (method not specified). It counts as cell-based. Also noted: expressed in transfected cells; host or cells: HEK293 / HEK-293, stably expressing. To be noted: inhibition of the Nav1.8 channel; one or more of fluorescence, PatchXpress or IonFlux HT methods. As for the experimental part:
The ability of pyridazine carboxamide derivatives exemplified above to inhibit the NaV1.8 channel was determined using one or more of the methods described below.
A HEK293 cell line stably expressing the human NaV1.8 (hNaV1.8) ion channel with β1/β2 subunits was constructed. The cell line is suitable for IC50 determination in fluorescence and electrophysiological based assays. It is also suitable to form mechanism of action pharmacology studies in electrophysiological assays. HEK293 NaV1.8 cells are grown as adherent monolayers in DMEM/high glucose media, 10% fetal bovine serum, Na pyruvate (2 mM), Hepes (10 mM) with selection agents G418 (400 mg/L) and puromycin (0.5 mg/L) at 37 degrees C., 10% CO2.
Activity of Representative NaV1.8 Inhibitors
The ability of representative pyridazine carboxamide derivatives exemplified above to inhibit the Nav1.8 channel was determined using one or more of the methods described immediately hereinabove.
Molecule `Cc1cc(F)ccc1Oc1nnc(C(F)(F)F)cc1C(=O)Nc1cccc(S(C)(=N)=O)c1` (stereo not shown) [Example 2, 3-(4-fluoro-2-methyl-phenoxy)-N-[3-(methylsulfonimidoyl)phenyl]-6-(trifluoromethyl)pyridazine-4-carboxamide] showed a half-inhibitory concentration (IC50) of less than 500 nM.

Consider `COc1cc(F)ccc1Oc1nnc(C(F)(F)F)cc1C(=O)Nc1cccc(S(C)(=N)=O)c1` (stereo not shown) [Example 1, 3-(4-fluoro-2-methoxy-phenoxy)-N-[3-(methylsulfonimidoyl)phenyl]-6-(trifluoromethyl)pyridazine-4-carboxamide], for which the IC50 was less than 500 nM.

In turn, `CS(=O)(=O)c1cccc(NC(=O)c2cc(Cl)nnc2Oc2ccc(OC(F)(F)F)cc2)c1` [Example 3, 6-chloro-N-(3-methylsulfonylphenyl)-3-[4-(trifluoromethoxy)phenoxy]pyridazine-4-carboxamide] came in with an IC50 of less than 500 nM.

The values above are taken from patent US20240336574A1 (LATIGO BIOTHERAPEUTICS, INC., priority 2021, published 2024).
